# What was measured:
# [1] = tested on: Culex pipiens molestus; assay: Test Example 10: efficacy test against Culex pipiens molestus; format: in vivo; settings: 24 h, 20 first-instar larvae in 100 mL, after one day, read-out: mortality rate against first-instar larvae of Culex pipiens molestus (converted)
# Protocol: (§1) 5 parts of the compound of the present invention, 93.6 parts of dimethylformamide and 1.4 parts of polyoxyethylene alkyl aryl ether were mixed and dissolved to prepare Emulsion (1) including 5% of an active ingredient.
# (§2) An insect mortality rate and a controlling rate were calculated by the numerical equations shown below. Insect mortality rate (%)=(Number of dead insects)/(Number of sample insects)×100 Controlling rate={1−(Nt)/(Nc)}×100
# Emulsion (1) was diluted with water so that the concentration of the compound of the present invention was 10 ppm, to prepare a chemical liquid for testing. 20 first-instar larvae of Culex pipiens molestus were released in 100 mL of the chemical liquid. After one day, the number of dead insects was counted, and the insect mortality rate was calculated. The test was performed twice.
# [2] = tested on: Plutella xylostella; assay: Test Example 3: efficacy test against Plutella xylostella (cabbage leaf soak); format: in vivo; settings: 72 h, cabbage leaves soaked 30 seconds, second-instar larvae, 3 days after inoculation, read-out: mortality rate against Plutella xylostella
# Protocol: as §1, §2
# Emulsion (1) was diluted with water so that the concentration of the compound of the present invention was 125 ppm. Cabbage leaves were soaked in the diluted liquid for 30 seconds. Subsequently, the cabbage leaves were put on Petri dishes, followed by inoculating 5 second-instar larvae of Plutella xylostella. The Petri dishes were placed in a thermostatic chamber at a temperature of 25° C. and humidity of 60%. Mortality was investigated 3 days after inoculation, and the insect mortality rate was calculated. The test was performed twice.
# [3] = tested on: Aphis craccivora; assay: Test Example 4: efficacy test against Aphis craccivora (spray on black-eyed pea plants); format: in vivo; settings: in Vigna unguiculata, 96 h, sprayed on black-eyed pea plants with nymphs, 4 days after spraying, read-out: mortality rate against Aphis craccivora
# Protocol: as §1, §2
# Black-eyed pea plants were raised in No. 3 pots and the primary leaves were inoculated with nymphs of Aphis craccivora. Emulsion (1) was diluted with water so that the concentration of the compound of the present invention was 125 ppm. Subsequently, the aforementioned diluted liquid was sprayed on the black-eyed pea plants on which the nymphs of Aphis craccivora were parasitic. The aforementioned black-eyed pea plants were then placed in a thermostatic chamber with a temperature of 25° C. and humidity of 60%. Mortality was investigated 4 days after spraying was carried out, and the insect mortality rate of Aphis craccivora was calculated. The test was performed twice.
# [4] = tested on: Nilaparvata lugens; assay: Test Examples 6 and 13: efficacy test against Nilaparvata lugens (rice seedling soak); format: in vivo; settings: 168 h, rice seedlings soaked 30 seconds, second-instar larvae, 7 days after inoculation, read-out: mortality rate against Nilaparvata lugens
# Protocol: as §1, §2
# (§3) Emulsion (1) was diluted with water so that the concentration of the compound of the present invention was 125 ppm. Rice seedlings were soaked in the diluted liquid for 30 seconds, and subjected to air-drying. Subsequently, the rice seedlings were placed in plastic cases, followed by inoculating 5 second-instar larvae of Nilaparvata lugens. The plastic cases were placed in a thermostatic chamber at a temperature of 25° C. and humidity of 65%. Mortality was investigated 7 days after inoculation, and the insect mortality rate was calculated. The test was performed twice.
# as §3, with “8” for “125”
# [5] = tested on: Phyllotreta striolata; assay: Test Examples 7 and 14: efficacy test against Phyllotreta striolata (spray on bok-choi seedlings); format: in vivo; settings: 168 h, sprayed on bok-choi seedlings, adults, 7 days after inoculation, read-out: mortality rate against adult Phyllotreta striolata
# Protocol: as §1, §2
# (§4) Emulsion (1) was diluted with water so that the concentration of the compound of the present invention was 125 ppm, to prepare a diluted liquid for testing. The aforementioned diluted liquid was sprayed on bok-choi seedlings (7th major leaf-development period) planted in No. 3 pots. After the bok-choi seedlings were subjected to air-drying, the seedlings were placed in plastic cups, followed by inoculating 10 adult Phyllotreta striolata. The plastic cups were stored in a thermostatic chamber at a temperature of 25° C. and humidity of 65%. Mortality was investigated 7 days after inoculation, and the insect mortality rate was calculated. The test was performed twice.
# as §4, with “8” for “125”
melting point [°C],SMILES,mortality at 10 ppm [1] [%],mortality at 125 ppm [2] [%],mortality at 125 ppm [3] [%],mortality at 125 ppm [4] [%],mortality at 125 ppm [5] [%],also measured
–,"CCS(=O)(=O)c1cnc(-n2cncn2)nc1-c1ncc(-c2ccc(OC(F)(F)F)cc2)n1C [Compound No. 3, 5-(ethylsulfonyl)-4-(1-methyl-5-(4-(trifluoromethoxy)phenyl)-1H-imidazol-2-yl)-2-(1H-1,2,4-triazol-1-yl)pyrimidine]",100,–,–,–,–,–
–,"CCS(=O)(=O)c1cnc(-c2ncccn2)nc1-c1ncc(-c2ccc(OC(F)(F)F)cc2)n1C [Compound No. 7, 5-(ethylsulfonyl)-4-(1-methyl-5-(4-(trifluoromethoxy)phenyl)-1H-imidazol-2-yl)-2,2′-bipyrimidine]",–,≥ 80,≥ 80,≥ 80,≥ 80,mortality at 8 ppm ([4]; 8 ppm): ≥ 80%; mortality at 8 ppm ([5]; 8 ppm): ≥ 80%
–,"CCS(=O)(=O)c1ccc(-n2cnc(C)n2)nc1-c1ncc(-c2ccc(OC(F)(F)F)cc2)n1C [Compound No. a-8, 3-(ethylsulfonyl)-6-(3-methyl-1H-1,2,4-triazol-1-yl)-2-(1-methyl-5-(4-(trifluoromethoxy)phenyl)-1H-imidazol-2-yl)pyridine]",100,≥ 80,≥ 80,≥ 80,≥ 80,–
202 to 204,CCS(=O)(=O)c1cc(C(F)(F)F)ccc1-c1nc(Br)c(-n2cc(I)cn2)n1C [b-1],–,–,–,–,–,–
176 to 178,CCS(=O)(=O)c1cc(C(F)(F)F)ccc1-c1nc(Br)c(-n2cc(C(F)(F)F)cn2)n1C [b-2],–,–,–,–,–,–
–,"CCSc1cnc(-n2cncn2)nc1-c1ncc(-c2ccc(OC(F)(F)F)cc2)n1C [compound 2, 5-(ethylthio)-4-(1-methyl-5-(4-(trifluoromethoxy)phenyl)-1H-imidazol-2-yl)-2-(1H-1,2,4-triazol-1-yl)pyrimidine]",100,–,–,–,–,–

# From US11180485B2, “Diaryl-azole compound and formulation for controlling harmful organism” (Nippon Soda Co., Ltd., priority 2016, dated 2021)
